Results published in ChEMBL document CHEMBL2074033, “In vivo imaging of hepatobiliary transport function mediated by multidrug resistance associated protein and P-glycoprotein” (Cancer Chemother Pharmacol, 2004).

Target: ATP-dependent translocase ABCB1 (Homo sapiens, UniProt P08183)
Assay: TP_TRANSPORTER: cell accumulation in GLP4/P-gp cells
Type: functional, cell-based

ATP-dependent translocase ABCB1, sequence (P08183 whole entry): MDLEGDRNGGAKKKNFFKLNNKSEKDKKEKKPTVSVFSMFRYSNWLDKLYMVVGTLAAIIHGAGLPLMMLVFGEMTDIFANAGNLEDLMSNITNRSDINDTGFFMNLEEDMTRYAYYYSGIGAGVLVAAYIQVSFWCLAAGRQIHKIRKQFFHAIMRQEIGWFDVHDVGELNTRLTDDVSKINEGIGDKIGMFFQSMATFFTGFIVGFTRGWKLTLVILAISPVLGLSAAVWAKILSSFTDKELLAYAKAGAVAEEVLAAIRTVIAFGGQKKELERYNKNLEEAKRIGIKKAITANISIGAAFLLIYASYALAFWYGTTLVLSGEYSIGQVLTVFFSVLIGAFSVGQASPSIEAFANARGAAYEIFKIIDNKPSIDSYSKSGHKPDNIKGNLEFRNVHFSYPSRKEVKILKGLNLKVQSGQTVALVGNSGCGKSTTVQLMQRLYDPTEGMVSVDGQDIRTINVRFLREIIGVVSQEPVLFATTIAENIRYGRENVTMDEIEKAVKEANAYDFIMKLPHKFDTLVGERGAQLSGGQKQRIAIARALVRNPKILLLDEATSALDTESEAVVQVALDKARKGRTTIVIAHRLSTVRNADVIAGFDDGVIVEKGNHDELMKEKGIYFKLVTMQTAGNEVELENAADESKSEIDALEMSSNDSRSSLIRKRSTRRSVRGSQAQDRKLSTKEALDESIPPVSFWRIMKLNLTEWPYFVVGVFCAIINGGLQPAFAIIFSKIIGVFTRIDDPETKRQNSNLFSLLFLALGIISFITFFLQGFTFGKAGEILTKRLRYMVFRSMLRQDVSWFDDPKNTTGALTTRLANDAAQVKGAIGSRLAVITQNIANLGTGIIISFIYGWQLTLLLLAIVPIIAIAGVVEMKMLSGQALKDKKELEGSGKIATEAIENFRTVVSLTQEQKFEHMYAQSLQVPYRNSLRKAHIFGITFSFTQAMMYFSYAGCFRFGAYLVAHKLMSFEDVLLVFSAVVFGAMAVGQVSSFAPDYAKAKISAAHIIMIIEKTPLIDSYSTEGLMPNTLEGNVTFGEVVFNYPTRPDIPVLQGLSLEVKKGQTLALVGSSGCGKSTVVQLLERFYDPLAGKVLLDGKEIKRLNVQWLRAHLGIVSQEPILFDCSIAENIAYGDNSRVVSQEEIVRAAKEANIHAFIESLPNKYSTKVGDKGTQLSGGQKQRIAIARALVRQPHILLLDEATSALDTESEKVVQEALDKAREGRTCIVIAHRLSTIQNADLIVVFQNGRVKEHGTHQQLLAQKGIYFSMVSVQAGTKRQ

TECHNETIUM TC 99M DISOFENIN
Activity: is not a substrate [-]
